Earlier results on one molecule are cited in patent US20190350879A1, “METHOD OF TREATING PAIN USING RACEMIC MIXTURE OF S-KETAMINE AND R-KETAMINE” (priority 2017, published 2019).

Data set [1] relates to N-Methyl-D-Aspartate receptors. Particulars: S(+)ketamine relative to R-isomer; target not named.
For data set [2] the following is noted: S(+)ketamine compared to R-isomer.

Consider `CN[C@]1(c2ccccc2Cl)CCCCC1=O` [S(+)ketamine], for which, in data set [1], the “affinity, times greater” value was “approximately four”. In data set [2], the psychotomimetic side effects entry is on record as “greater psychotomimetic side effects”.
